The text below walks through data of ChEMBL document CHEMBL1136000, “Synthesis of a small library of 3-(carboranylalkyl)thymidines and their biological evaluation as substrates for human thymidine kinases 1 and 2” (J Med Chem, 2002).

The target in experiment [1] is T1, Thymidine kinase, cytosolic (Homo sapiens) (UniProt P04183).
T1 sequence (whole entry): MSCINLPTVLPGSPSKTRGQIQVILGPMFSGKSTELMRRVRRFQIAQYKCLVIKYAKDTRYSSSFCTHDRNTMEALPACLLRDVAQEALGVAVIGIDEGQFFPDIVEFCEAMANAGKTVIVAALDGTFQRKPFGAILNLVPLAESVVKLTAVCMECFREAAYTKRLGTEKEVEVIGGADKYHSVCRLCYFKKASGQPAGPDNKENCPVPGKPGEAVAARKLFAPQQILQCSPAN
Description: Rate of phosphorylation in the presence of 1% DMSO using Phosphoryl transfer assay in recombinant human cytosolic thymidine kinase 1 at 10 uM

Experiment [2] has as its target Thymidine kinase 2, mitochondrial (Homo sapiens) (UniProt O00142).
The target of experiment [3] is T1, Thymidine kinase, cytosolic (Homo sapiens). The source holds these as a separate data set.
Description: Rate of phosphorylation in the presence of 1% DMSO using Phosphoryl transfer assay in recombinant human cytosolic thymidine kinase 1 at 5 uM

Sequence of Thymidine kinase 2, mitochondrial (Homo sapiens) (O00142 whole entry, looked up): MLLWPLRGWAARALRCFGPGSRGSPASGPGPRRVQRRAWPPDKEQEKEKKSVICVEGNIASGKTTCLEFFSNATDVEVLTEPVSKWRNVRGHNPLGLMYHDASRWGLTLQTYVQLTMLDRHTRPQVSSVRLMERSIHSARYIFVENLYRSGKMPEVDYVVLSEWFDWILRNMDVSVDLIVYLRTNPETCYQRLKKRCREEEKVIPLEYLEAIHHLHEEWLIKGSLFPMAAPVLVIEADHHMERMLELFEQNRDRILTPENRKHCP

In the case of `Cc1cn([C@H]2C[C@H](O)[C@@H](CO)O2)c(=O)n(CCCCCC2CC2)c1=O`, the Rate of phosphorylation is 0.41 in experiment [1], 0.001 in experiment [2] and 0.57 in experiment [3].
In the same order, the values of `Cc1cn([C@H]2C[C@H](O)[C@@H](CO)O2)c(=O)n(CCCCCCC2CC2CC(O)CO)c1=O` (some centres undefined) are 0.32, 0.002 and 0.22.
For `Cc1cn([C@H]2C[C@H](O)[C@@H](CO)O2)c(=O)[nH]c1=O`, the Rate of phosphorylation in experiment [1], in experiment [2] and in experiment [3] was 1 throughout.
As to `Cc1cn([C@H]2C[C@H](O)[C@@H](CO)O2)c(=O)n(CCCCCC2CC2CC(O)CO)c1=O` (some centres undefined), the Rate of phosphorylation came to 0.41 in experiment [1], 0.002 in experiment [2] and 0.39 in experiment [3].
For `Cc1cn([C@H]2C[C@H](O)[C@@H](CO)O2)c(=O)n(CCCCCCCC2CC2)c1=O` the same measures were 0.11, under 0.001 and 0.15.
Consider `Cc1cn([C@H]2C[C@H](O)[C@@H](CO)O2)c(=O)n(CCCCCCCC2CC2CC(O)CO)c1=O` (some centres undefined), for which the Rate of phosphorylation in experiment [1] is 0.13; in experiment [2], under 0.001; in experiment [3], 0.13.
As for `Cc1cn([C@H]2C[C@H](O)[C@@H](CO)O2)c(=O)n(CCCC2CC2CC(O)CO)c1=O` (some centres undefined), the Rate of phosphorylation in experiment [1] stood at 0.4; in experiment [2], 0.004; in experiment [3], 0.43.
For `Cc1cn([C@H]2C[C@H](O)[C@@H](CO)O2)c(=O)n(CCCCC2CC2)c1=O` the same measures were 0.13, 0.003 and 0.17.
For `Cc1cn([C@H]2C[C@H](O)[C@@H](CO)O2)c(=O)n(CCCCC2CC2CC(O)CO)c1=O` (some centres undefined) the same measures were 0.21, 0.003 and 0.21.
In the same order, the values of `Cc1cn([C@H]2C[C@H](O)[C@@H](CO)O2)c(=O)n(CCC2CC2)c1=O` are 0.39, 0.002 and 0.42.
In the case of `Cc1cn([C@H]2C[C@H](O)[C@@H](CO)O2)c(=O)n(CCCCCCC2CC2)c1=O`, the Rate of phosphorylation in experiment [1] was 0.28; in experiment [2] it was under 0.001; in experiment [3], 0.31.
As to `Cc1cn([C@H]2C[C@H](O)[C@@H](CO)O2)c(=O)n(CCCC2CC2)c1=O`, the Rate of phosphorylation was found to be 0.3 in experiment [1], 0.002 in experiment [2] and 0.27 in experiment [3].
Take `Cc1cn([C@H]2C[C@H](O)[C@@H](CO)O2)c(=O)n(CCC2CC2CC(O)CO)c1=O` (some centres undefined): the Rate of phosphorylation in experiment [1] worked out at 0.45; in experiment [2] it was 0.002; in experiment [3], 0.49.
